Results taken from patent publication US5559132A, “Carboxamide derivatives for treating asthma” (Zeneca Limited, priority 1993, dated 1996).

Target: T1, guinea pig trachea (NKA or [β-ala8]-NKA(4-10) as agonist) (Cavia porcellus, UniProt Q64077)
T1 construct: The trachea are removed, trimmed of excess tissue and divided into two segments; from tissue; host or cells: guinea pig trachea rings (male animals)
T1 sequence (Q64077 1-402): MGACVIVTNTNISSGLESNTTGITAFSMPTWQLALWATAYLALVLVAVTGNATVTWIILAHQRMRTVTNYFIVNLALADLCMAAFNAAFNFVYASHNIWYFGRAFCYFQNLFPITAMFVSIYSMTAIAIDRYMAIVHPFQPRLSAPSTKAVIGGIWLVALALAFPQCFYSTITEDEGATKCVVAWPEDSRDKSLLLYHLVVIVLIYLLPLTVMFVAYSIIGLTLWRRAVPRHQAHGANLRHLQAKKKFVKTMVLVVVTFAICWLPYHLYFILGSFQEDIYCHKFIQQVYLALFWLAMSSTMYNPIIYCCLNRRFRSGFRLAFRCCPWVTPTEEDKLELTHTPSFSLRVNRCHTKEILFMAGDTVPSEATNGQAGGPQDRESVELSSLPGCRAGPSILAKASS
Test: Guinea Pig Assay (Test B): antagonism of NKA or [β-ala8]-NKA(4-10) contraction in guinea pig trachea
Conditions: -log molar KB
Method: In the test described below either NKA or [β-ala^8 ]-NKA(4-10) is used as an agonist. The chosen agonist is refered to as AG throughout the description.
Male guinea pigs are killed by a sharp blow to the back of the head. The trachea are removed, trimmed of excess tissue and divided into two segments. […] Initial tension placed on each tissue is 1 g, which is maintained throughout a 0.5 to 1.5 hour equilibration period before addition of other drugs. Contractile responses are measured on a Grass polygraph via Grass FT-03 force transducers.
Tissues are challenged repetitively with a single concentration of AG (10 nM) with intervening 30 min periods with washing to allow the tension to return to baseline levels. […] Percent inhibition is determined when a Compound produces a statistically significant (p<0.05) reduction of the contraction and is calculated using the second contractile response as 100%.
Potencies of selected Compounds are evaluated by calculating apparent dissociation constants (KB) for each concentration tested using the standard equation: […]
where dose ratio=antilog[(AG -log molar EC50 without Compound)--(AG -log molar EC50 with Compound)]. The KB values may be converted to the negative logarithms and expressed as -log molar KB (i.e. pKB). […] The EC50 values are converted to the negative logarithms and expressed as -log molar EC50. […]

Kb: 20 nM
Structure (SMILES): CC(=O)N(C1CCCCC1)C1CCN(CCC(CN(C)C(=O)c2ccccc2)c2ccc(Cl)c(Cl)c2)CC1 (stereo not shown) [Example 4, N-[4-[4-(N-Cyclohexylacetamido)piperidino]-2-(3,4-dichlorophenyl)butyl]-N-methylbenzamide]
